In publication PMC11591752, “Novel Inhibitory Actions of Neuroactive Steroid [3α,5α]-3-Hydroxypregnan-20-One on Toll-like Receptor 4-Dependent Neuroimmune Signaling” (Biomolecules, 2024):

Biological target: T1, MD-2 (Homo sapiens, UniProt Q9Y6Y9)
T1 construct: gene LY96; Recombinant human MD-2 (R&D Systems #1787-MD-050/CF), covalently immobilized
T1 sequence (Q9Y6Y9 19-160): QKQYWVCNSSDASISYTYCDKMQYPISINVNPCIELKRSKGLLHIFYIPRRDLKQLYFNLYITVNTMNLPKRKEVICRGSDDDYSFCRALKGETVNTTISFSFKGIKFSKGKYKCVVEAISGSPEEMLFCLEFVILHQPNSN
Assay: SPR competition assay: inhibition of Lipid A binding to immobilized hMD-2

CC(=O)[C@H]1CC[C@H]2[C@@H]3CC[C@H]4C[C@H](O)CC[C@]4(C)[C@H]3CC[C@]12C [3α,5α-THP, (3α,5α)-3-hydroxypregnan-20-one]
Ki: 4.5 ± 1.7 nM
